Source: US9174942B2, “IDO inhibitors” (NewLink Genetics Corporation, priority 2008, dated 2015)
Structures can show the parent of a compound that is named as a salt.

Each molecule was assayed against T1, purified human IDO protein (Homo sapiens, UniProt P14902, E119G/P110S) (assay: Enzymatic IDO assay (kynurenine formation, absorbance at 480 nm)). Details: recombinant human IDO, 200 μM L-tryptophan, pH 6.5; reported in ranges.
T1 construct: 6-Histidine tag (C); made in house; host or cells: E. coli M15(pREP4) transformed with pQE70-hIDO
Type: biochemical
Protocol: The inhibitors were initially diluted in DMSO at 100 mM and were diluted in potassium phosphate 50 mM, added to the reaction mixture at final concentrations raging from 1 mM to 5 nM and preincubated with the enzyme for 5 min at 25° C. The reaction was started by addition of L-tryptophan to 200 μM and incubated 15 min at 37° C. The reaction was stopped by addition of 0.5 vol of 30% trichloroacetic acid and incubated 30 min at 60° C. to hydrolyze N-formylkynurenine to kynurenine. The reaction was centrifuged at 3400 g for 5 min to remove precipitated protein and the supernatant was reacted with 2% (w/v) of p-dimethylaminobenzaldehyde in acetic acid. The reaction was incubated 10 min at 25° C. and read at 480 nm in a spectrophotometer. […] Nonlinear regressions and determination of the IC50 values were performed using the GraphPad Prism 4 software.

T1 sequence (P14902 whole entry P110S/E119G): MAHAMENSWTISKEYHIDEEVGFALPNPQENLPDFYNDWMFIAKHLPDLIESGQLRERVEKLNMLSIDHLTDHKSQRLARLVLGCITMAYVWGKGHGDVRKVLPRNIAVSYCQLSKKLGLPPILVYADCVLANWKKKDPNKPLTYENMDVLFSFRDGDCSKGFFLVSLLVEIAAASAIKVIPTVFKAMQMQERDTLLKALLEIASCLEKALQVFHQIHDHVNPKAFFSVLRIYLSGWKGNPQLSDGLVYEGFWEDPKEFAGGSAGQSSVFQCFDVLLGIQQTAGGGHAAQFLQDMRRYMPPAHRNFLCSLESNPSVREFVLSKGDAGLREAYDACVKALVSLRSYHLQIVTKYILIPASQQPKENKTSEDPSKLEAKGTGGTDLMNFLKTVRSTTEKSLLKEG

| SMILES | IC50 [µM] |
| --- | --- |
| CSc1ccccc1-c1c[nH]cn1 [Compound 1, 5-(2-(methylthio)phenyl)-1H-imidazole] | 20 to 100 |
| CC(C)(C)CCOc1cccc(O)c1-c1cnc[nH]1 [Compound 13, 3-(3,3-dimethylbutoxy)-2-(1H-imidazol-5-yl) phenol hydrochloride] | < 20 |
| Clc1ccc(COc2ccccc2-c2cnc[nH]2)cc1 [Compound 14, 5-(2-(4-chlorobenzyloxy)phenyl)-1H-imidazole] | < 20 |
| Clc1ccccc1CCOc1ccccc1-c1c[nH]cn1 [Compound 15, 4-(2-(2-chlorophenethoxy)phenyl)-1H-imidazole] | < 20 |
| CC(C)(CCOc1ccccc1-c1c[nH]cn1)CCOc1ccccc1-c1cnc[nH]1 [Compound 18, 5,5′-(2,2′-(3,3-dimethylpentane-1,5-diyl)bis(oxy)bis(2,1-phenylene))bis(1H-imidazole)] | < 20 |
| Oc1ccc(O)c(-c2c[nH]cn2)c1 [Compound 21, 2-(1H-imidazol-4-yl)benzene-1,4-diol] | < 20 |
| Sc1ccccc1-c1c[nH]cn1 [Compound 23, 2-(1H-imidazol-5-yl) benzenethiol] | < 20 |
| CC(C)(C)CCOc1c(Br)cccc1-c1c[nH]cn1 [Compound 26, 4-(3-bromo-2-(3,3-dimethylbutoxy)phenyl)-1H-imidazole] | < 20 |
| Brc1cccc(-c2cnc[nH]2)c1 [Compound 27, 5-(3-bromophenyl)-1H-imidazole] | < 20 |
| Clc1cccc(COc2ccccc2-c2cnc[nH]2)c1 [Compound 29, 5-(2-(3-chlorobenzyloxy)phenyl)-1H-imidazole] | < 20 |
| O=C(NCc1ccccc1-c1c[nH]cn1)c1ccccc1Cl [Compound 30, N-(2-(1H-imidazol-4-yl)benzyl)-2-chlorobenzamide] | < 20 |
| CC(C)(C)COc1ccccc1-c1c[nH]cn1 [Compound 31, 4-(2-(neopentyloxy)phenyl)-1H-imidazole] | < 20 |
| CC(C)(C)CCn1cncc1-c1ccccc1 [Compound 32, 1-(3,3-dimethylbutyl)-5-phenyl-1H-imidazole] | < 20 |
| Clc1cccc(CCOc2ccccc2-c2c[nH]cn2)c1 [Compound 33, 4-(2-(3-chlorophenethoxy)phenyl)-1H-imidazole] | < 20 |
| CC(=O)Nc1ccc(CCOc2ccccc2-c2c[nH]cn2)cc1 [Compound 34, N-(4-(2-(2-(1H-imidazol-4-yl)phenoxy)ethyl)phenyl) acetamide] | < 20 |
| Oc1c(Br)cccc1-c1cnc[nH]1 [Compound 35, 2-bromo-6-(1H-imidazol-5-yl)phenol] | < 20 |
| Oc1ccc(F)cc1-c1cc[nH]n1 [Compound 36, 4-fluoro-2-(1H-pyrazol-3-yl)phenol] | < 20 |
| Cc1ccccc1COc1ccccc1-c1c[nH]cn1 [Compound 37, 4-(2-(2-methylbenzyloxy)phenyl)-1H-imidazole] | < 20 |
| CNC(=O)CCC(C)(C)CCOc1ccccc1-c1c[nH]cn1 [Compound 38, 6-(2-(1H-imidazol-4-yl)phenoxy)-N,4,4-trimethylhexanamide] | < 20 |
| CC(=O)NC1CCC(=CCOc2ccccc2-c2c[nH]cn2)CC1 (stereo not shown) [Compound 39, N-(4-(2-(2-(1H-imidazol-4-yl)phenoxy)ethylidene)cyclohexyl)acetamide] | < 20 |

| SMILES | IC50 [µM] |
| --- | --- |
| CC(=O)Nc1cccc(CCOc2ccccc2-c2c[nH]cn2)c1 [Compound 40, N-(3-(2-(2-(1H-imidazol-4-yl)phenoxy)ethyl)phenyl) acetamide] | < 20 |
| COc1cccc(O)c1-c1c[nH]cn1 [Compound 41, 2-(1H-imidazol-4-yl)-3-methoxyphenol] | < 20 |
| Oc1ccccc1-c1cc[nH]n1 [Compound 43, 2-(1H-pyrazol-3-yl)phenol] | < 20 |
| CNC(=O)c1ccc(CCOc2ccccc2-c2c[nH]cn2)cc1 [Compound 45, 4-(2-(2-(1H-imidazol-4-yl)phenoxy)ethyl)-N-methylbenzamide] | < 20 |
| NS(=O)(=O)c1ccc(COc2ccccc2-c2c[nH]cn2)cc1 [Compound 46, 4-((2-(1H-imidazol-4-yl)phenoxy)methyl) benzenesulfonamide] | < 20 |
| Cc1cccc(COc2ccccc2-c2cnc[nH]2)c1 [Compound 48, 5-(2-(3-methylbenzyloxy)phenyl)-1H-imidazole] | < 20 |
| Clc1ccc(COc2ccc(Br)cc2-c2c[nH]cn2)cc1 [Compound 49, 4-(5-bromo-2-(4-chlorobenzyloxy)phenyl)-1H-imidazole] | < 20 |
| CNC(=O)c1cccc(CCOc2ccccc2-c2c[nH]cn2)c1 [Compound 50, 3-(2-(2-(1H-imidazol-4-yl)phenoxy)ethyl)-N-methylbenzamide] | < 20 |
| Oc1cccc(Cn2cncc2-c2ccccc2)c1 [Compound 51, 3-((5-phenyl-1H-imidazol-1-yl)methyl)phenol] | < 20 |
| Clc1ccccc1Cn1cncc1-c1ccccc1 [Compound 52, 1-(2-chlorobenzyl)-5-phenyl-1H-imidazole] | < 20 |
| CC(=O)NCCC(C)(C)CCOc1ccccc1-c1c[nH]cn1 [Compound 53] | < 20 |
| Clc1ccc(Cn2cncc2-c2ccccc2)cc1 [Compound 54, 1-(4-chlorobenzyl)-5-phenyl-1H-imidazole] | 20 to 100 |
| N#Cc1ccc(COc2ccccc2-c2c[nH]cn2)cc1 [Compound 55, 4-((2-(1H-imidazol-4-yl)phenoxy)methy)benzonitrile] | 20 to 100 |
| CNC(=O)Cc1cccc(COc2ccccc2-c2c[nH]cn2)c1 [Compound 57, 2-(3-((2-(1H-imidazol-4-yl)phenoxy)methyl)phenyl)-N-methylacetamide] | 20 to 100 |
| Fc1cc(F)cc(-c2c[nH]cn2)c1 [Compound 59, 4-(3,5-difluorophenyl)-1H-imidazole] | 20 to 100 |
| Clc1ccc(COc2c(Br)cccc2-c2c[nH]cn2)cc1 [Compound 60, 4-(3-bromo-2-(4-chlorobenzyloxy)phenyl)-1H-imidazole] | 20 to 100 |
| Clc1ccc(CCOc2ccccc2-c2c[nH]cn2)cc1 [Compound 61, 4-(2-(4-chlorophenethoxy)phenyl)-1H-imidazole] | 20 to 100 |
| Clc1ccc(CNc2ccccc2-c2c[nH]cn2)cc1 [Compound 62, N-(4-chlorobenzyl)-2-(1H-imidazol-4-yl)aniline] | 20 to 100 |
| Oc1cc(Cl)ccc1-c1cnc[nH]1 [Compound 63, 5-chloro-2-(1H-imidazol-5-yl)phenol] | 20 to 100 |
| c1ccc(CCCn2cncc2-c2ccccc2)cc1 [Compound 64, 5-phenyl-1-(3-phenylpropyl)-1H-imidazole] | 20 to 100 |

| SMILES | IC50 [µM] |
| --- | --- |
| Oc1ccccc1Cn1cncc1-c1ccccc1 [Compound 65, 2-((5-phenyl-1H-imidazol-1-yl)methyl)phenol] | 20 to 100 |
| Cc1ccc(COc2ccccc2-c2c[nH]cn2)cc1 [Compound 66, 4-(2-(4-methylbenzyloxy)phenyl)-1H-imidazole] | 20 to 100 |
| COc1ccc(Cn2cncc2-c2ccccc2)cc1 [Compound 68, 1-(4-methoxybenzyl)-5-phenyl-1H-imidazole] | 20 to 100 |
| N#Cc1cccc(Cn2cncc2-c2ccccc2)c1 [Compound 69, 3-((5-phenyl-1H-imidazol-1-yl)methyl)benzonitrile] | 20 to 100 |
| Brc1ccc(-c2c[nH]cn2)cc1 [Compound 70, 5-(4-bromophenyl)-1H-imidazole] | 20 to 100 |
| O=[N+]([O-])c1ccccc1Cn1cncc1-c1ccccc1 [Compound 71, 1-(2-nitrobenzyl)-5-phenyl-1H-imidazole] | 20 to 100 |
| Cc1ccc(Cn2cncc2-c2ccccc2)cc1 [Compound 72, 1-(4-methylbenzyl)-5-phenyl-1H-imidazole] | 20 to 100 |
| Oc1cccc(OCc2ccc(Cl)cc2)c1-c1cnc[nH]1 [Compound 73, 3-(4-chlorobenzyloxy)-2-(1H-imidazol-5-yl)phenol] | 20 to 100 |
| N#Cc1cccc(COc2ccccc2-c2c[nH]cn2)c1 [Compound 74, 3-((2-(1H-imidazol-4-yl)phenoxy)methyl)benzonitrile] | 20 to 100 |
| Clc1ccccc1COc1ccccc1-c1c[nH]cn1 [Compound 75, 4-(2-(2-chlorobenzyloxy)phenyl)-1H-imidazole] | 20 to 100 |
| c1ccc(-c2c[nH]cn2)c(OCC2CCCNC2)c1 (stereo not shown) [Compound 76, 3-((2-(1H-imidazol-4-yl)phenoxy)methyl)piperidine] | 20 to 100 |
| Cc1ccccc1Cn1cncc1-c1ccccc1 [Compound 77, 1-(2-methylbenzyl)-5-phenyl-1H-imidazole] | 20 to 100 |
| OCc1ccccc1-c1c[nH]cn1 [Compound 78, (2-(1H-imidazol-4-yl)phenyl)methanol] | 20 to 100 |
| COC(=O)CCC(C)(C)CCOc1ccccc1-c1c[nH]cn1 [Compound 79, methyl 6-(2-(1H-imidazol-4-yl)phenoxy)-4,4-dimethylhexanoate] | 20 to 100 |
| CCOC(=O)c1ccccc1-c1c[nH]cn1 [Compound 80, ethyl 2-(1H-imidazol-4-yl)benzoate] | 20 to 100 |
| c1ccc(CCn2cncc2-c2ccccc2)cc1 [Compound 81, 1-phenethyl-5-phenyl-1H-imidazole] | 20 to 100 |
| CC(C)(CCOc1ccccc1-c1c[nH]cn1)CCC(=O)O [Compound 83, 6-(2-(1H-imidazol-4-yl)phenoxy)-4,4-dimethylhexanoic acid hydrochloride] | 20 to 100 |
| CS(=O)(=O)N1CCC(COc2ccccc2-c2c[nH]cn2)CC1 [Compound 84, 4-((2-(1H-imidazol-4-yl)phenoxy)methyl)-1-(methylsulfonyl)piperidine] | 20 to 100 |
